Measured values published in PMC8010149, “A Therapeutic Strategy to Combat HIV-1 Latently Infected Cells With a Combination of Latency-Reversing Agents Containing DAG-Lactone PKC Activators” (Frontiers in Microbiology, 2021).
pEC50: −log10 of the molar value.

Experiments:
[1] = test system: HIV-1 latently infected U1 cells; assay: HIV-1 latency reversal, p24 antigen in supernatant, U1 cells; type: cell-based; details: Human immunodeficiency virus 1, 48 h
Procedure: (§1) The reactivation of HIV-1 from latently infected cells was determined by intracellular p24 protein expression and quantification of p24 antigen in the supernatant (ACH-2 and U1 cells), or by changes in intracellular green fluorescent protein (GFP) expression (J-Lat 10.6 cells). J-Lat ([Jordan et al., 2003]), ACH-2, or U1 cells (5 × 10^5 cells/ml) were seeded in 96-well plates and incubated with different drug concentrations for 24 h to collect the cells. The supernatant was collected after 48 h. The increase in supernatant p24 antigen levels was measured using a Lumipulse G1200 (FUJIREBIO, Tokyo, Japan). J-Lat cells (5 × 10^5 cells/ml) were placed in 48-well plates and incubated with different drug concentrations for 24 h. Intracellular p24 protein expression and GFP-positive cells were analyzed by flow cytometry.

[2] = test system: HIV-1 latently infected ACH-2 cells; assay: HIV-1 latency reversal, p24 antigen in supernatant, ACH-2 cells; type: cell-based; details: Human immunodeficiency virus 1, ACH-2, 48 h
Procedure: as §1

[3] = test system: HIV-1 latently infected U1 cells; assay: Intracellular HIV-1 p24 by flow cytometry in U1 cells; type: cell-based
Procedure: as §1
(§2) The amount of intracellular HIV-1 p24 and the active form of caspase-3 were determined by flow cytometry, as previously described ([Matsuda et al., 2015], [2019]). In brief, ACH-2 and U1 cells (2.5 × 10^5 cells/ml) were fixed with 1% paraformaldehyde/PBS for 20 min and permeabilized with Flow Cytometry Perm Buffer (TONBO Biosciences, San Diego, CA, United States). After 5 min of incubation at room temperature, the cells were stained with FITC anti-HIV-1 p24 (24-4) monoclonal antibody (mAb; Santa Cruz Biotechnology, Dallas, TX, United States) or Alexa Fluor 647-conjugated anti-active caspase-3 (C92-605) mAb (BD Pharmingen, San Diego, CA, United States) for 30 min on ice. For T cell activation and exhaustion marker staining, PBMCs from healthy donors separated by the above density gradient centrifugation method were incubated with fixable viability stain Ghost Dye 780 (TONBO Biosciences) for 30 min on ice. The cells were then stained with Brilliant Violet 510 anti-human CD3 (UCHT1) mAb (BioLegend), FITC anti-human CD4 (RPA-T4) mAb (TONBO Biosciences), PE-Cy7 anti-human CD8a (RPA-T8) mAb (TONBO Biosciences), PerCP-Cy5.5 anti-human CD38 (HB-7) mAb (BioLegend), PE anti-human CD69 (FN50) mAb (BioLegend), or Alexa Fluor 647 anti-human CD279/PD-1 (EH12.1) mAb (BD Biosciences, San Jose, CA, United States) for 30 min on ice. Next, the cells were analyzed using BD FACSVerse (BD Biosciences). In the analysis, unstained cells were used as a negative control to set the gating for each experiment. The collected data were analyzed using FlowJo software (Tree Star, San Carlos, CA, United States).

[4] = test system: HIV-1 latently infected ACH-2 cells; assay: Intracellular HIV-1 p24 by flow cytometry in ACH-2 cells; type: cell-based
Procedure: as §1, §2

[5] = Cytotoxicity of LRAs in A3.01 cells; type: cell-based; details: human, day 7
Procedure: (§3) To determine the cytotoxicity of LRAs, A3.01, and U937 cells (5 × 10^5 cells/ml), which are the parental cells for ACH-2 and U1 cells, respectively, were cultured in the presence or absence of LRAs. After 7 days, cell viability was examined using the Cell Counting Kit-8 assay (Dojindo, Kumamoto, Japan) according to the manufacturer’s instructions. The numbers of living cells after drug treatment were measured and compared to those in untreated cells and are presented as a percentage relative to the control.

[6] = Cytotoxicity of LRAs in U937 cells; type: cell-based; details: human, day 7
Procedure: as §3

J-Lat 10.6 cells = type: cell-based, HIV-1; details: J-Lat 10.6 cells, 24 h
Procedure: The reactivation of HIV-1 from latently infected cells was determined by intracellular p24 protein expression and quantification of p24 antigen in the supernatant (ACH-2 and U1 cells), or by changes in intracellular green fluorescent protein (GFP) expression (J-Lat 10.6 cells). […] The supernatant was collected after 48 h. The increase in supernatant p24 antigen levels was measured using a Lumipulse G1200 (FUJIREBIO, Tokyo, Japan). […] Intracellular p24 protein expression and GFP-positive cells were analyzed by flow cytometry.
Differences between groups were analyzed for statistical significance using unpaired t-tests. Statistical significance was set at p < 0.05. Statistical analyses were performed using GraphPad Prism version 8 (GraphPad Software, La Jolla, CA, United States). CompuSyn software, based on the quantitative analysis of dose-effect relationships between multiple drugs by Chou and Talalay, was utilized to determine the synergism or antagonism of drug combinations ([Chou and Talalay, 1984]). To confirm synergy, this software calculates combination index (CI) values, which further assist in determining the nature of the combination compared to single drug effects. A CI value <1 indicates synergistic effects.

[7] = test system: HIV-1 in CD4+ T cells from HIV-1-infected individuals; assay: Ex vivo reactivation, intracellular HIV-1 mRNA in primary CD4+ T cells from HIV-1-infected individuals; type: cell-based; details: 1 μM JQ1, 24 h, seven individuals
Procedure: Primary cells were isolated from seven HIV-1^+ individuals, and ex vivo reactivation experiments were conducted as previously described ([Matsuda et al., 2019]). In brief, peripheral blood samples were collected from HIV-1-infected participants receiving cART for at least 5 years (Table 1). All subjects maintained a low viral load (<20 copies/ml, except for occasional “blips”) during therapy. CD4^+ T cell counts in peripheral blood samples ranged from 477 to 992 cells/mm^3 (average: 631 cells/mm^3), and plasma viral loads were <20 copies/ml (except for one participant whose viral load was 22 copies/ml) as measured by quantitative PCR (qPCR; COBAS AmpliPrep/COBAS TaqMan HIV-1 Test version 2.0; Roche Diagnostics, Basel, Switzerland) at the time of study enrollment. The Ethics Committee at the National Center for Global Health and Medicine approved this study (NCGM-G-002259-00), and each patient provided written informed consent. […] The number of HIV-1 RNA copies was calculated using a standard curve obtained from serially diluted HIV-1pNL4-3 plasmid, and normalized values [HIV-1 RNA copies/input RNA (ng)] for each drug were compared to those without drug treatment. The relative increase in HIV-1 RNA levels in the presence of each drug or combination was then determined.

[8] = test system: CD8+PD1+CD38+ primary T cells; assay: Immune exhaustion markers, CD8+PD1+CD38+ primary T cells; type: cell-based, human; details: PBMCs from healthy donors, 24 h
Procedure: as §2

BALB/c mice = assay: In vivo acute toxicity (24 h) in BALB/c mice
Excerpt: BALB/c mice were purchased from Charles River Laboratories Japan, Inc. (Yokohama, Japan). Female mice at 5 weeks of age were used for the experiments. The mice were housed and monitored in our animal research facility according to the institutional guidelines. All experimental procedures and protocols were approved by the Institutional Animal Care and Use Committee of Kumamoto University.

U1 cells = assay: Active caspase-3 by flow cytometry in U1 cells; type: cell-based; details: 10 µM, 24 h
Procedure: as §2, with “The cells were then stained with Brilliant Violet 510 anti-human CD3 (UCHT1) mAb (BioLegend), FITC anti-human CD4 (RPA-T4) mAb (TONBO Biosciences), PE-Cy7 anti-human CD8a (RPA-T8) mAb (TONBO Biosciences), PerCP-Cy5.5 anti-human CD38 (HB-7) mAb (BioLegend), PE anti-human CD69 (FN50) mAb (BioLegend), or Alexa Fluor 647 anti-human CD279/PD-1 (EH12.1) mAb (BD Biosciences, San Jose, CA, United States) for 30 min on ice.” left out, “In the analysis, unstained cells were used as a negative control to set the gating for each experiment.” left out

U937 cells = assay: Active caspase-3 by flow cytometry in U937 cells; type: cell-based; details: 10 μM, 24 h
[9] = PMA control, concentration not given

## CCCCCCCCCC(=O)OCC1(CO)CC(=C(C)C)C(=O)O1 (centres unmarked) [HTA14-472]
[1]
  pEC50: < 5.00
[2]
  pEC50: < 5.00
[3]; 0.1 µM, 24 h
  intracellular p24-positive live cells (flow cytometry quadrant): 0.28
[3]; 1 µM, 24 h
  intracellular p24-positive live cells (flow cytometry quadrant): 0.262
[3]; 10 µM, 24 h
  intracellular p24-positive live cells (flow cytometry quadrant): 2.98
[4]; 0.1 µM, 24 h
  intracellular p24-positive live cells (flow cytometry quadrant): 0.714
[4]; 1 µM, 24 h
  intracellular p24-positive live cells (flow cytometry quadrant): 0.526
[4]; 10 µM, 24 h
  intracellular p24-positive live cells (flow cytometry quadrant): 17.4
[5]
  CC50 at 7 days: > 100 µM
[6]
  CC50 at 7 days: > 100 µM

## Cc1sc2c(c1C)C(c1ccc(Cl)cc1)=N[C@@H](CC(=O)OC(C)(C)C)c1nnc(C)n1-2 [JQ1, reference compound]
J-Lat 10.6 cells; 100–400 nM
  number of GFP+ cells: 12.6%
[7]
  HIV-1 mRNA compared to no drug control: 2.25 fold

## C/C=C(/C)C(=O)O[C@H]1C(C)=C[C@]23C(=O)[C@@H](C=C(CO)[C@@H](O)[C@]12O)[C@H]1[C@@H](C[C@H]3C)C1(C)C [PEP005]
[8]
  increase in CD8+ PD1+ CD38+ T cells: significant increase
BALB/c mice; intraperitoneal
  concentration at which acute toxicity started: 300 µg/kg
BALB/c mice; intraperitoneal, 1,000 μg/kg
  survival: all tested mice died

## CCCCCCCCCCCCCC(=O)O[C@@H]1[C@@H](C)[C@@]2(O)[C@@H](C=C(CO)C[C@]3(O)C(=O)C(C)=C[C@@H]23)[C@@H]2C(C)(C)[C@]12OC(C)=O [PMA, Phorbol 12-myristate 13-acetate, reference compound]
[3]; [9]
  intracellular p24-positive live cells (flow cytometry quadrant): 42.2
[4]; [9]
  intracellular p24-positive live cells (flow cytometry quadrant): 77.8

## CC(=O)O[C@@]12C[C@@H](C)[C@@]3(O)[C@@H](C=C(CO)C[C@]4(O)C(=O)C(C)=C[C@@H]34)[C@@H]1C2(C)C [Prostratin, reference compound]
[1]
  pEC50: 6.49
[2]
  pEC50: 6.48
[3]; 0.1 µM, 24 h
  intracellular p24-positive live cells (flow cytometry quadrant): 0.333
[3]; 1 µM, 24 h
  intracellular p24-positive live cells (flow cytometry quadrant): 33.5
[3]; 10 µM, 24 h
  intracellular p24-positive live cells (flow cytometry quadrant): 40.7
[8]
  increase in CD8+ PD1+ CD38+ T cells: significant increase
J-Lat 10.6 cells; GFP-positive cells
  LRA activity in the presence of 10% mouse serum versus 10% FBS: did not change
[4]; 0.1 µM, 24 h
  intracellular p24-positive live cells (flow cytometry quadrant): 4.99
[4]; 1 µM, 24 h
  intracellular p24-positive live cells (flow cytometry quadrant): 68.7
[4]; 10 µM, 24 h
  intracellular p24-positive live cells (flow cytometry quadrant): 76.7
U1 cells
  caspase-3 activation: 19.1%
[5]
  CC50 at 7 days: > 100 µM
U937 cells
  caspase-3 activation: 18.8%
[6]
  CC50 at 7 days: > 100 µM

## CCCCCCCCCC(=O)OCC1(CO)C/C(=C\CC(C(C)C)C(C)C)C(=O)O1 (centres unmarked) [YOK058E]
[1]
  pEC50: 5.08
[2]
  pEC50: < 5.00
[3]; 0.1 µM, 24 h
  intracellular p24-positive live cells (flow cytometry quadrant): 0.208
[3]; 1 µM, 24 h
  intracellular p24-positive live cells (flow cytometry quadrant): 0.197
[3]; 10 µM, 24 h
  intracellular p24-positive live cells (flow cytometry quadrant): 13.3
[4]; 0.1 µM, 24 h
  intracellular p24-positive live cells (flow cytometry quadrant): 0.629
[4]; 1 µM, 24 h
  intracellular p24-positive live cells (flow cytometry quadrant): 3.24
[4]; 10 µM, 24 h
  intracellular p24-positive live cells (flow cytometry quadrant): 67.2
[5]
  CC50 at 7 days: > 100 µM
[6]
  CC50 at 7 days: > 100 µM
